One block for each compound: values may come before it.
What was measured:
[1] = test system: various Aspergillus species; assay: Robotic MIC assay, summary over species (Example 4); assay type: cell-based; conditions: Aspergillus species tested
Procedure: Aspergillus sp. was grown at 30° C. for 96 h on YM-agar. Spores and aerial mycelium was cut out from the agar, suspended in 1 ml YM-broth and dispersed with glass beads (1 mm) in a mini bead beater for 2 min. Glycerol was added to the suspension to 10% and frozen at −80° C.
Each batch of frozen stock culture was then characterized in separate growth experiments using Mueller-Hinton broth to determine the minimum amount of inoculum giving satisfactory growth after 48 h under the conditions relevant for the MIC assay. This inoculation procedure is used in order to reduce day to day variation in bioassays.
Robotic minimum inhibitory concentration (MIC) assay was performed as follows. OligoG CF-5/20 was dissolved in medium (Mueller-Hinton broth) to 1.25 times of the desired assay concentrations (2, 6 and 10%). […].
Two-fold serial dilutions of antifungal agents were made in medium with different concentrations of OligoG CF-5/20, and the solutions were placed in four parallel wells in Nunc 384-well micro plates (30 μl per well in Nunc 242757 microplates). A group of 8 wells with no addition of antifungal agents for each OligoG CF-5/20 concentration was included on each micro plate as growth reference. Each well in the 384-well assay plates was added 7.5 μl of the MH medium inoculated with frozen stock culture of the relevant strains.
The microplates were placed in plastic bags and incubated without shaking at 34° C. The optical density at 600 nm in the microwells was measured after approximately 24 and 48 hours of incubation. […]

[2] = test system: C. parapsillosis ATCC 22019T; assay: Robotic MIC assay, Candida strains (Example 2); assay type: cell-based, Candida parapsilosis; conditions: 48 h, Mueller-Hinton broth
Procedure: (§1) A robotic MIC Assay was performed as follows. OligoG CF-5/20 were dissolved in medium (Mueller-Hinton broth or M19 broth depending on experiment) to 1.25 times of the desired assay concentrations (2, 6 and 10%). The antifungal agents under test were dissolved in medium without OligoG CF-5/20 and in medium with OligoG CF-5/20 at a concentration of 1.25 times the highest desired assay concentrations. For experiments where the effect of adding different concentrations of Na^+ was investigated, NaCl was dissolved in medium to the desired concentrations (10, 30 and 50 mM).
(§2) Two-fold serial dilutions of antifungal agents were made in medium with different concentrations of OligoG CF-5/20, and the solutions were placed in four parallel wells in Nunc 384-well micro plates (30 μl per well in Nunc 242757 microplates). A group of 8 wells with no addition of antifungal agents for each OligoG CF-5/20 concentration was included on each microplate as growth reference. To each well in the 384-well assay plates was added 7.5 μl of medium inoculated with a frozen stock culture of Candida albicans (strain CCUG 39343).
(§3) The micro plates were placed in plastic bags and incubated without shaking at 34° C. The optical density at 600 nm in the microwells was measured after approximately 13, 18, 24 and 34 hours of incubation, and the relative growth yield in each well was calculated based on the growth in the reference groups.
(§4) The robotic assay described in Example 1 was employed in this Example. Strains were grown in Mueller-Hinton broth (LAB114 from Lab M Limited) and MIC values (μg ml-1) were determined for each antifungal after incubation for 48 h in the presence of 0, 2, 6 and 10% OligoG CF-5/20 G-fragments. […] OligoG CF-5/20 G-fragments were provided by AlgiPharma AS, Norway.
(§5) Candida strains used were as follows: • C. albicans CCUG 39343 (strain from culture collection) • C. parapsillosis ATCC 22019T (strain from culture collection) • C. krusei 141/03 (candidosis) • C. krusei 249/03(2) (ulceration) • C. lusitaniae 994/01(2) (candidosis) • C. tropicalis 12 (vaginal) • C. tropicalis 75 (vaginal) • C. tropicalis 519468 (urinary) • C. tropicalis 544123 (urinary) • C. tropicalis 250/03 (candidosis) • C. tropicalis AG1 (oral) • C. tropicalis T2.2 (oral)

[3] = test system: C. tropicalis 544123 (urinary); assay: Robotic MIC assay, Candida strains (Example 2); assay type: cell-based; conditions: 48 h, Mueller-Hinton broth
Procedure: as §1, §2, §3, §4, §5

C. tropicalis AG1 (oral) = assay: Robotic MIC assay, Candida strains (Example 2); assay type: cell-based; conditions: 48 h, Mueller-Hinton broth
Procedure: as §1, §2, §3, §4, §5

[4] = test system: C. tropicalis T2.2 (oral); assay: Robotic MIC assay, Candida strains (Example 2); assay type: cell-based; conditions: 48 h, Mueller-Hinton broth
Procedure: as §1, §2, §3, §4, §5

[5] = test system: C. krusei 249/03(2) (ulceration); assay: Robotic MIC assay, Candida strains (Example 2); assay type: cell-based; conditions: 48 h, Mueller-Hinton broth
Procedure: as §1, §2, §3, §4, §5

[6] = test system: C. tropicalis 75 (vaginal); assay: Robotic MIC assay, Candida strains (Example 2); assay type: cell-based; conditions: 48 h, Mueller-Hinton broth
Procedure: as §1, §2, §3, §4, §5

[7] = test system: C. tropicalis 12 (vaginal); assay: Robotic MIC assay, Candida strains (Example 2); assay type: cell-based; conditions: 48 h, Mueller-Hinton broth
Procedure: as §1, §2, §3, §4, §5

[8] = test system: C. krusei 141/03 (candidosis); assay: Robotic MIC assay, Candida strains (Example 2); assay type: cell-based; conditions: 48 h, Mueller-Hinton broth
Procedure: as §1, §2, §3, §4, §5

[9] = test system: C. lusitaniae 994/01(2) (candidosis); assay: Robotic MIC assay, Candida strains (Example 2); assay type: cell-based; conditions: 48 h, Mueller-Hinton broth
Procedure: as §1, §2, §3, §4, §5

C. albicans CCUG 39343 = assay: Robotic MIC assay, Candida strains (Example 2); assay type: cell-based; conditions: 48 h, Mueller-Hinton broth
Procedure: as §1, §2, §3, §4, §5

[10] = test system: C. tropicalis 519468 (urinary); assay: Robotic MIC assay, Candida strains (Example 2); assay type: cell-based; conditions: 48 h, Mueller-Hinton broth
Procedure: as §1, §2, §3, §4, §5

[11] = test system: C. tropicalis 250/03 (candidosis); assay: Robotic MIC assay, Candida strains (Example 2); assay type: cell-based; conditions: C. tropicalis 250/03 Candiosis, 48 h, Mueller-Hinton broth
Procedure: as §1, §2, §3, §4, §5

effect of addition of OligoG CF-5/20 on MIC values [1]: reduction in MIC values
Compound: Clc1ccc(COC(Cn2ccnc2)c2ccc(Cl)cc2Cl)c(Cl)c1 (centres unmarked) [Miconazole, miconazole]

Compound: C[C@@H]1[C@H](O)[C@@H](C)/C=C/C=C/CC/C=C/C=C/C=C/C=C/C(O[C@H]2O[C@H](C)[C@@H](O)[C@H](N)[C@@H]2O)CC2O[C@](O)(CC(O)C(O)CCC(O)CC(O)CC(O)CC(=O)O[C@H]1C)CC(O)C2C(=O)O (some centres unmarked) [Nystatin, nystatin]
effect of addition of OligoG CF-5/20 on MIC values [1]: reduction in MIC values
Minimum Inhibitory Concentration (MIC) ([2]; 0% OligoG): 4 µg/mL
Minimum Inhibitory Concentration (MIC) ([2]; 2% OligoG): 2 µg/mL
Minimum Inhibitory Concentration (MIC) ([2]; 6% OligoG): 1 µg/mL
Minimum Inhibitory Concentration (MIC) ([2]; 10% OligoG): 0.5 µg/mL
Minimum Inhibitory Concentration (MIC) ([3]; 0% OligoG): 8 µg/mL
Minimum Inhibitory Concentration (MIC) ([3]; 2% OligoG): 8 µg/mL
Minimum Inhibitory Concentration (MIC) ([3]; 6% OligoG): 2 µg/mL
Minimum Inhibitory Concentration (MIC) ([3]; 10% OligoG): 2 µg/mL
Minimum Inhibitory Concentration (MIC) (C. tropicalis AG1 (oral); 0% OligoG): 8 µg/mL
Minimum Inhibitory Concentration (MIC) (C. tropicalis AG1 (oral); 2% OligoG): 8 µg/mL
Minimum Inhibitory Concentration (MIC) (C. tropicalis AG1 (oral); 6% OligoG): 4 µg/mL
Minimum Inhibitory Concentration (MIC) (C. tropicalis AG1 (oral); 10% OligoG): 2 µg/mL
Minimum Inhibitory Concentration (MIC) ([4]; 0% OligoG): 8 µg/mL
Minimum Inhibitory Concentration (MIC) ([4]; 2% OligoG): 8 µg/mL
Minimum Inhibitory Concentration (MIC) ([4]; 6% OligoG): 4 µg/mL
Minimum Inhibitory Concentration (MIC) ([4]; 10% OligoG): 2 µg/mL
Minimum Inhibitory Concentration (MIC) ([5]; 0% OligoG): 8 µg/mL
Minimum Inhibitory Concentration (MIC) ([5]; 2% OligoG): 8 µg/mL
Minimum Inhibitory Concentration (MIC) ([5]; 6% OligoG): 8 µg/mL
Minimum Inhibitory Concentration (MIC) ([5]; 10% OligoG): 4 µg/mL
Minimum Inhibitory Concentration (MIC) ([6]; 0% OligoG): 8 µg/mL
Minimum Inhibitory Concentration (MIC) ([6]; 2% OligoG): 8 µg/mL
Minimum Inhibitory Concentration (MIC) ([6]; 6% OligoG): 8 µg/mL
Minimum Inhibitory Concentration (MIC) ([6]; 10% OligoG): 2 µg/mL
Minimum Inhibitory Concentration (MIC) ([7]; 0% OligoG): 8 µg/mL
Minimum Inhibitory Concentration (MIC) ([7]; 2% OligoG): 8 µg/mL
Minimum Inhibitory Concentration (MIC) ([7]; 6% OligoG): 4 µg/mL
Minimum Inhibitory Concentration (MIC) ([7]; 10% OligoG): 4 µg/mL
Minimum Inhibitory Concentration (MIC) ([8]; 0% OligoG): 8 µg/mL
Minimum Inhibitory Concentration (MIC) ([8]; 2% OligoG): 4 µg/mL
Minimum Inhibitory Concentration (MIC) ([8]; 6% OligoG): 2 µg/mL
Minimum Inhibitory Concentration (MIC) ([8]; 10% OligoG): 2 µg/mL
Minimum Inhibitory Concentration (MIC) ([9]; 0% OligoG): 8 µg/mL
Minimum Inhibitory Concentration (MIC) ([9]; 2% OligoG): 8 µg/mL
Minimum Inhibitory Concentration (MIC) ([9]; 6% OligoG): 2 µg/mL
Minimum Inhibitory Concentration (MIC) ([9]; 10% OligoG): 1 µg/mL
Minimum Inhibitory Concentration (MIC) (C. albicans CCUG 39343; 0% OligoG): 8 µg/mL
Minimum Inhibitory Concentration (MIC) (C. albicans CCUG 39343; 2% OligoG): 8 µg/mL
Minimum Inhibitory Concentration (MIC) (C. albicans CCUG 39343; 6% OligoG): 4 µg/mL
Minimum Inhibitory Concentration (MIC) (C. albicans CCUG 39343; 10% OligoG): 2 µg/mL
Minimum Inhibitory Concentration (MIC) ([10]; 0% OligoG): 16 µg/mL
Minimum Inhibitory Concentration (MIC) ([10]; 2% OligoG): 8 µg/mL
Minimum Inhibitory Concentration (MIC) ([10]; 6% OligoG): 4 µg/mL
Minimum Inhibitory Concentration (MIC) ([10]; 10% OligoG): 2 µg/mL
Minimum Inhibitory Concentration (MIC) ([11]; 0% OligoG): 8 µg/mL
Minimum Inhibitory Concentration (MIC) ([11]; 2% OligoG): 4 µg/mL
Minimum Inhibitory Concentration (MIC) ([11]; 6% OligoG): 2 µg/mL
Minimum Inhibitory Concentration (MIC) ([11]; 10% OligoG): 1 µg/mL
